System: HCT116^MTAP Deletion cells
Assay: Anti-proliferation assay on cells (Cell-Titer Glo, 10 days)
Format: cell-based
Settings: 240 h, HCT116^MTAP Deletion cells, 10 days incubation, CTG readout; read-out: HCT116^MTAP Deletion GI50
Method in brief: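 HCT116^MTAP Deletion cells seeded at 50 cells/well and exposed to 10-point 3-fold compound dilutions in duplicate (0.1% DMSO) for 10 days at 37 °C. Viability read by CellTiter-Glo luminescence; IC50 derived from GI50 curves of concentration versus inhibition.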

Row | GI50 [nM] | SMILES
1 | 10 to 100 | CN(C(=O)C(=O)Nc1cnc(N)c2c1cnn2C)C1COc2cc(C(F)(F)F)c(F)cc21 (centres unmarked) [Example 199]
2 | < 10 | Cc1nn(C)cc1-c1ccc2c(c1)COCC2N(C)C(=O)C(=O)Nc1cnc(N)c2c1cnn2C (centres unmarked) [Example 200]
3 | < 10 | COc1ccc(-c2ccc3c(c2)COCC3N(C)C(=O)C(=O)Nc2cnc(N)c3c2cnn3C)cn1 (centres unmarked) [Example 202]
4 | 10 to 100 | CN(C(=O)C(=O)Nc1cnc(N)c2c1cnn2C)C1COCc2cc(C3(F)CNC3)ccc21 (centres unmarked) [Example 203]
5 | 10 to 100 | CN(C(=O)C(=O)Nc1cnc(N)c2c1cnn2C)C1COc2cc(OC(F)F)ccc21 (centres unmarked) [Example 204]
6 | 10 to 100 | CN(C(=O)C(=O)Nc1cnc(N)c2c1cnn2C)C1COc2cc(N3CCOCC3)ccc21 (centres unmarked) [Example 205]
7 | < 10 | CCc1ccc2c(c1)OCC2N(C)C(=O)C(=O)Nc1cnc(N)c2c1cnn2C (centres unmarked) [Example 206]
8 | < 10 | Cc1ncc(-c2ccc3c(c2)COCC3N(C)C(=O)C(=O)Nc2cnc(N)c3c2cnn3C)o1 (centres unmarked) [Example 207]
9 | 10 to 100 | CN(C(=O)C(=O)Nc1cnc(N)c2c1cnn2C)C1COc2c1ccc(C(F)(F)F)c2F (centres unmarked) [Example 208]
10 | < 10 | CN(C(=O)C(=O)Nc1cnc(N)c2c1cnn2C)C1COc2cc(C(F)(F)C(F)(F)F)ccc21 (centres unmarked) [Example 210]
11 | < 10 | CN(C(=O)C(=O)Nc1cnc(N)c2c1cnn2C)C1COc2cc(-c3ccccc3F)ccc21 (centres unmarked) [Example 214]
12 | < 10 | CN(C(=O)C(=O)Nc1cnc(N)c2c1cnn2C)C1COCc2cc(-c3ccccc3F)ccc21 (centres unmarked) [Example 215]
13 | 10 to 100 | CN(C(=O)C(=O)Nc1cnc(N)c2c1cnn2C)C1COc2cc(-c3ccccc3)ccc21 (centres unmarked) [Example 216]
14 | < 10 | CN(C(=O)C(=O)Nc1cnc(N)c2c1cnn2C)C1COCc2cc(C(C)(C)C)ccc21 (centres unmarked) [Example 217]
15 | < 10 | CN(C(=O)C(=O)Nc1cnc(N)c2c1cnn2C)C1COCc2cc(C3(C#N)CC3)ccc21 (centres unmarked) [Example 218]
16 | < 10 | CN(C(=O)C(=O)Nc1cnc(N)c2c1cnn2C)C1COCc2nc(-c3ccccc3)ccc21 (centres unmarked) [Example 219]
17 | < 10 | CN(C(=O)C(=O)Nc1cnc(N)c2c1cnn2C)C1COCc2nc(-c3ccnn3C3CC3)ccc21 (centres unmarked) [Example 220]
18 | 10 to 100 | Cc1ncc(-c2cc3c(cn2)C(N(C)C(=O)C(=O)Nc2cnc(N)c4c2cnn4C)COC3)s1 (centres unmarked) [Example 222]
19 | < 10 | CN(C(=O)C(=O)Nc1cnc(N)c2c1cnn2C)C1COCc2nc(-c3ccccc3F)ccc21 (centres unmarked) [Example 225]
20 | < 10 | CN(C(=O)C(=O)Nc1cnc(N)c2c1cnn2C)C1COCc2cc(-c3ccccc3)ccc21 (centres unmarked) [Example 226]
21 | 10 to 100 | CN(C(=O)C(=O)Nc1cnc(N)c2c1cnn2C)C1COCc2cc(S(C)(=O)=O)ccc21 (centres unmarked) [Example 227]
22 | 100 to 1000 | CN(C(=O)C(=O)Nc1cnc(N)c2c1cnn2C)C1COc2cc(-c3nncn3C3CC3)ccc21 (centres unmarked) [Example 228]
23 | 10 to 100 | Cc1nc(-c2ccc3c(c2)OCC3N(C)C(=O)C(=O)Nc2cnc(N)c3c2cnn3C)no1 (centres unmarked) [Example 229]
24 | < 10 | CC(C)c1ccc2c(c1)OCC2N(C)C(=O)C(=O)Nc1cnc(N)c2c1cnn2C (centres unmarked) [Example 230]
25 | < 10 | CN(C(=O)C(=O)Nc1cnc(N)c2c1cnn2C)C1COCc2cc(-c3ccnn3C3CC3)ccc21 (centres unmarked) [Example 232]
26 | 100 to 1000 | CN(C(=O)C(=O)Nc1cnc(N)c2c1cnn2C)C1COc2ccccc2C1 (centres unmarked) [Example 234]
27 | < 10 | CN(C(=O)C(=O)Nc1cnc(N)c2c1cnn2C)C1COCc2cc(C3(C(F)(F)F)CC3)ccc21 (centres unmarked) [Example 237]
28 | < 10 | CN(C(=O)C(=O)Nc1cnc(N)c2c1cnn2C)C1COCc2cc(C(F)(F)C(F)(F)F)ccc21 (centres unmarked) [Example 238]
29 | < 10 | CN(C(=O)C(=O)Nc1cnc(N)c2c1cnn2C)C1COc2cc(-c3ccc(C4CC4)nc3)ccc21 (centres unmarked) [Example 239]
30 | 10 to 100 | CC#Cc1ccc2c(c1)OCC2N(C)C(=O)C(=O)Nc1cnc(N)c2c1cnn2C (centres unmarked) [Example 240]

The remaining lines, values behind:

Row | SMILES | GI50 [nM]
31 | COc1ncc(NC(=O)C(=O)N(C)C2COc3cc(C(F)(F)F)ccc32)cc1C(N)=O (centres unmarked) [Example 142] | 1000 to 10000
32 | COc1ncc(NC(=O)C(=O)N(C)C2COCc3cc(C(F)(F)F)ccc32)cc1C(N)=O (centres unmarked) [Example 143] | 100 to 1000
33 | CN(C(=O)C(=O)Nc1cnc(N)c2c1cnn2C)C1COCc2cc(C3CCOCC3)ccc21 (centres unmarked) [Example 144] | 10 to 100
34 | Cc1cn(-c2ccc3c(c2)COCC3N(C)C(=O)C(=O)Nc2cnc(N)c3c2cnn3C)cn1 (centres unmarked) [Example 145] | 10 to 100
35 | CN(C(=O)C(=O)Nc1cnc(N)c2c1cnn2C)C1COC(C)(C)c2cc(C(F)(F)F)ccc21 (centres unmarked) [Example 147] | 10 to 100
36 | CN(C(=O)C(=O)Nc1cnc(N)c2c1cnn2C)C1COCc2c1cccc2C(F)(F)F (centres unmarked) [Example 148] | 10 to 100
37 | CN1CCN(c2ccc3c(c2)COCC3N(C)C(=O)C(=O)Nc2cnc(N)c3c2cnn3C)CC1 (centres unmarked) [Example 149] | 10 to 100
38 | Cc1c(-c2ccc3c(c2)COCC3N(C)C(=O)C(=O)Nc2cnc(N)c3c2cnn3C)cnn1C (centres unmarked) [Example 150] | < 10
39 | CN(C(=O)C(=O)Nc1cnc(N)c2c1cnn2C)C1COCc2ncccc21 (centres unmarked) [Example 151] | 10 to 100
40 | CN(C(=O)C(=O)Nc1cnc(N)c2c1cnn2C)C1COCc2cc(-c3cnn4c3CCC4)ccc21 (centres unmarked) [Example 154] | < 10
41 | CN(C(=O)C(=O)Nc1cnc(N)c2c1cnn2C)C1COCc2cc(Cl)c(Cl)cc21 (centres unmarked) [Example 158] | < 10
42 | COc1ncc(NC(=O)C(=O)N(C)C2COCc3cc(C4=CCOCC4)ccc32)cc1C(N)=O (centres unmarked) [Example 166] | 100 to 1000
43 | CN(C(=O)C(=O)Nc1cnc(N)c2c1cnn2C)C1COc2cc(C3=CCCOC3)ccc21 (centres unmarked) [Example 169] | 10 to 100
44 | Cc1ncc(-c2ccc3c(c2)OCC3N(C)C(=O)C(=O)Nc2cnc(N)c3c2cnn3C)s1 (centres unmarked) [Example 170] | < 10
45 | CN(C(=O)C(=O)Nc1cnc(N)c2c1cnn2C)C1COCc2cc(OC3CC3)ccc21 (centres unmarked) [Example 171] | 10 to 100
46 | CN(C(=O)C(=O)Nc1cnc(N)c2c1cnn2C)C1COCc2cc(N3CCOCC3)ccc21 (centres unmarked) [Example 175] | 10 to 100
47 | CN(C(=O)C(=O)Nc1cnc(N)c2c1cnn2C)C1COc2cc(C(F)(F)F)cc(F)c21 (centres unmarked) [Example 176] | 10 to 100
48 | CN(C(=O)C(=O)Nc1cnc(N)c2c1cnn2C)C1COc2cc(-c3ccc(C(F)(F)F)cn3)ccc21 (centres unmarked) [Example 177] | 10 to 100
49 | Cc1cc(-c2ccc3c(c2)COCC3N(C)C(=O)C(=O)Nc2cnc(N)c3c2cnn3C)on1 (centres unmarked) [Example 179] | 10 to 100
50 | CN(C(=O)C(=O)Nc1cnc(N)c2c1cnn2C)C1COc2cc(C(F)(F)F)ncc21 (centres unmarked) [Example 188] | 10 to 100
51 | CN(C(=O)C(=O)Nc1cnc(N)c2c1cnn2C)C1COc2cc(S(C)(=O)=O)ccc21 (centres unmarked) [Example 189] | 10 to 100
52 | CN(C(=O)C(=O)Nc1cnc(N)c2c1cnn2C)C1COc2cc(C3CCOCC3)ccc21 (centres unmarked) [Example 190] | 10 to 100
53 | CN(C(=O)C(=O)Nc1cnc(N)c2c1cnn2C)C1COCc2cc(-c3cnc(C(F)(F)F)s3)ccc21 (centres unmarked) [Example 191] | < 10
54 | CN(C(=O)C(=O)Nc1cnc(N)c2c1cnn2C)C1COc2cc(C3CC3)ccc21 (centres unmarked) [Example 193] | 10 to 100
55 | CN(C(=O)C(=O)Nc1cnc(N)c2c1cnn2C)C1COc2cc(OC(F)(F)F)ccc21 (centres unmarked) [Example 196] | 10 to 100
56 | CN(C(=O)C(=O)Nc1cnc(N)c2c1cnn2C)C1COCc2cc(C34CCOCC3C4)ccc21 (centres unmarked) [Example 197] | < 10
57 | CN(C(=O)C(=O)Nc1cnc(N)c2c1cnn2C)C1COc2cc(C#N)ccc21 (centres unmarked) [Example 198] | 10 to 100

Same assay, conditions: HCT116^MTAP Deletion cells, 10 days incubation, CTG readout; read-out: HCT116^MTAP Deletion GI50

Row | GI50 [nM] | SMILES
58 | < 10 | CN(C(=O)C(=O)Nc1cnc(N)c2c1cnn2C)C1COc2cc(-c3cnn(C4CC4)c3)ccc21 (centres unmarked) [Example 211]
59 | < 10 | CN(C(=O)C(=O)Nc1cnc(N)c2c1cnn2C)C1COc2cc(-c3ccnn3C3CC3)ccc21 (centres unmarked) [Example 212]
60 | < 10 | CN(C(=O)C(=O)Nc1cnc(N)c2c1cnn2C)C1COc2cc(-c3cnn(C(F)(F)F)c3)ccc21 (centres unmarked) [Example 213]
61 | 10 to 100 | Cc1ccc2c(c1)OCC2N(C)C(=O)C(=O)Nc1cnc(N)c2c1cnn2C (centres unmarked) [Example 233]
62 | < 10 | CN(C(=O)C(=O)Nc1cnc(N)c2c1cnn2C)C1COc2cc(-c3cnc(C4CC4)s3)ccc21 (centres unmarked) [Example 236]
63 | < 10 | CC1OCC(N(C)C(=O)C(=O)Nc2cnc(N)c3c2cnn3C)c2ccc(C(F)(F)F)cc21 (centres unmarked) [compound 187]

More lines, now with the values behind:

Row | SMILES | GI50 [nM]
64 | CN(C(=O)C(=O)Nc1cnc(N)c2c1cnn2C)C1COc2cc(-c3cnn(C)c3)ccc21 (centres unmarked) [Example 140-P2] | 10 to 100
65 | CN(C(=O)C(=O)Nc1cnc(N)c2c1cnn2C)C1COCc2c1ccc(F)c2F (centres unmarked) [Example 141-P1] | 10 to 100
66 | CN(C(=O)C(=O)Nc1cnc(N)c2c1cnn2C)C1COCc2c1ccc(F)c2F (centres unmarked) [Example 141-P2] | 100 to 1000
67 | CN(C(=O)C(=O)Nc1cnc(N)c2c1cnn2C)C1COc2nc(C(F)(F)F)ccc21 (centres unmarked) [Example 159] | 100 to 1000
68 | CN1CC=C(c2ccc3c(c2)COCC3N(C)C(=O)C(=O)Nc2cnc(N)c3c2cnn3C)CC1 (centres unmarked) [Example 160] | 10 to 100
